Experimental data reported in the NIST ThermoML archive (doi:10.1016/j.jct.2008.09.014).
Several values for one entry are separate records, joined by “and”; a condition that tells them apart may be missing. Identical values can stand only once.

Conditions: Crystal; for vapor or sublimation pressure: Calculated from knudsen effusion weight loss

O=[N+]([O-])c1ccc2[nH]ccc2c1 [5-nitroindole]
Conditions | vapor or sublimation pressure
353.15 K | 9.42e-05 kPa and 9.3e-05 kPa
355.2 K | 0.0001148 kPa and 0.0001117 kPa
357.18 K | 0.0001368 kPa and 0.0001345 kPa and 0.000131 kPa
359.15 K | 0.0001667 kPa and 0.0001723 kPa and 0.0001702 kPa
361.19 K | 0.0001997 kPa and 0.000201 kPa
363.17 K | 0.0002441 kPa and 0.0002364 kPa
365.16 K | 0.0003138 kPa and 0.0003041 kPa and 0.0002935 kPa
367.19 K | 0.0003798 kPa and 0.0003685 kPa and 0.0003544 kPa
369.17 K | 0.0004448 kPa and 0.000439 kPa and 0.0004322 kPa
371.17 K | 0.0005523 kPa and 0.0005458 kPa and 0.0005326 kPa
373.19 K | 0.0006817 kPa and 0.0006526 kPa and 0.0006311 kPa
375.17 K | 0.0008006 kPa and 0.0007692 kPa

O=[N+]([O-])c1ccc2c(c1)CCN2 [5-nitroindoline]
Conditions | mass density [kg/m3]
298.15 K, 101.33 kPa, mass and volume measurement | 1390

Conditions | vapor or sublimation pressure
338.09 K | 6.24e-05 kPa and 6.06e-05 kPa and 6.3e-05 kPa
340.12 K | 7.74e-05 kPa and 7.36e-05 kPa and 7.65e-05 kPa
342.2 K | 0.000101 kPa and 9.69e-05 kPa and 9.36e-05 kPa
344.08 K | 0.0001236 kPa and 0.0001184 kPa and 0.0001211 kPa
346.1 K | 0.0001521 kPa and 0.0001453 kPa and 0.0001435 kPa
348.19 K | 0.0001876 kPa and 0.0001782 kPa and 0.0001803 kPa
350.1 K | 0.000241 kPa and 0.0002364 kPa and 0.0002307 kPa
352.13 K | 0.0002958 kPa and 0.0002905 kPa and 0.0002792 kPa
354.19 K | 0.0003738 kPa and 0.0003438 kPa and 0.0003465 kPa
356.1 K | 0.0004193 kPa and 0.0004189 kPa and 0.0004131 kPa
358.12 K | 0.0005196 kPa and 0.0005153 kPa and 0.0005004 kPa
360.18 K | 0.0006675 kPa and 0.0006261 kPa and 0.0006157 kPa
